Converted amounts (≈) assume the structure as drawn.
Experiments:
HT-29 [1] = assay: Growth inhibition of human HT-29 cells at 8 ml/L after 36 hrs by MTT assay relative to control; assay type: functional
RPMI-8226 [2] = assay: Growth inhibition of human RPMI8226 cells after 24 hrs; assay type: functional, cell-based; conditions: RPMI-8226, 24 h
[3] = Antiproliferative activity against human 95-D cells at 1.5 g/L after 12 to 48 hrs by MTT assay relative to control; assay type: functional
[4] = Antiproliferative activity against human GBC-SD cells assessed as cell survival at 1 mmol/L up to 72 hrs by MTT assay (reference value: 100%); assay type: functional; conditions: read-out: Survival
CCRF-CEM [5] = assay: Antiproliferative activity against human CCRF-CEM cells after 72 hrs by WST1 assay; assay type: functional, cell-based
PANC-1 [6] = assay: Induction of apoptosis in human PANC1 cells at 0.75 mg/ml by flow cytometry (reference value: 4.13%); assay type: functional
SGC-7901 [7] = assay: Growth inhibition of human SGC7901 cells at 60 mg/ml after 72 hrs by MTT assay relative to control; assay type: functional; conditions: SGC-7901, 72 h, read-out: GI
SGC-7901 [8] = assay: Induction of apoptosis in human SGC7901 cells at 60 mg/ml after 48 hrs by propidium iodide staining based flow cytometry (reference value: 3.54 +/- 0.47%); assay type: functional
PC-3 [9] = assay: Induction of apoptosis in human PC3 cells assessed as late apoptotic cells at […] (reference value: 2.5%); assay type: functional
MG-63 [10] = assay: Growth inhibition of human MG63 cells at 3.2 mg/ml after 48 hrs by MTT assay relative to control; assay type: functional; conditions: MG-63, 48 h, read-out: GI
MCF7 [11] = assay: Antiproliferative activity against human MCF7 cells after 48 hrs by MTT assay; assay type: functional, cell-based; conditions: MCF7, 48 h
MCF7 [12] = assay: Antiproliferative activity against human MCF7 cells after 72 hrs relative to control; assay type: functional
M21 [13] = assay: Induction of apoptosis in human M21 cells at 0.2 mg/ml after 48 hrs by Annexin V-FITC/propidium iodide staining based flow cytometry relative to control; assay type: functional
M21 [14] = assay: Induction of apoptosis in human M21 cells at 0.4 mg/ml after 48 hrs by Annexin V-FITC/propidium iodide staining based flow cytometry relative to control; assay type: functional
KYSE-150 cell line = assay: Antiproliferative activity against human KYSE-150 cells assessed as cell viability at 3 mg/ml after 24 hrs by MTT assay relative to control; assay type: functional; conditions: KYSE-150, 24 h, read-out: Activity
PANC-1 [15] = assay: Induction of apoptosis in human PANC1 cells at 0.25 mg/ml by flow cytometry (reference value: 4.13%); assay type: functional
M21 [16] = assay: Growth inhibition of human M21 cells after 48 hrs by MTT assay; assay type: functional, cell-based; conditions: M21, 48 h
MG-63 [17] = assay: Growth inhibition of human MG63 cells at 0.8 mg/ml after 48 hrs by MTT assay relative to control; assay type: functional; conditions: MG-63, 48 h, read-out: GI
UMR108 [18] = assay: Growth inhibition of rat UMR108 cells assessed as cell proliferation at 1 mg/ml after 24 hrs by MTT assay (reference value: 0.405 +/- 0.007%); assay type: functional; conditions: UMR108, 24 h, read-out: Activity
BXPC-3 [19] = assay: Induction of apoptosis in human BxPC3 cells at 0.25 mg/ml by flow cytometry (reference value: 2.81%); assay type: functional
PANC-1 [20] = assay: Antiproliferative activity against human PANC1 cells by MTT assay; assay type: functional, cell-based
HT-29 [21] = assay: Growth inhibition of human HT-29 cells after 24 hrs by MTT assay; assay type: functional, cell-based; conditions: HT-29, 24 h
RPMI-8226 [22] = assay: Growth inhibition of human RPMI8226 cells at […] after 24 hrs relative to control; assay type: functional; conditions: RPMI-8226, 24 h, read-out: GI
D341 cell line [23] = assay: Growth inhibition of human D341 cells at 2 mg/ml after 72 hrs by CCK8 assay relative to control; assay type: functional; conditions: D341, 72 h, read-out: GI
NIH3T3 = assay: Antiproliferative activity against mouse NIH/3T3 cells after 72 hrs by MTT assay; assay type: cell-based; conditions: NIH3T3, 72 h
BXPC-3 [24] = assay: Induction of apoptosis in human BxPC3 cells at 0.75 mg/ml by flow cytometry (reference value: 2.81%); assay type: functional
HepG2 [25] = assay: Antiproliferative activity against human HepG2 cells at 0.8 mg/ml after 48 hrs relative to control; assay type: functional
[26] = Growth inhibition of human MM1R cells after 24 hrs; assay type: functional; conditions: MM.1R
HeLa = assay: Induction of apoptosis in human HeLa cells at 100 ug/ml after 48 hrs by Annexin V-FITC/propidium iodide staining based flow cytometry relative to control; assay type: functional
HT-29 [27] = assay: Synergistic growth inhibition of human HT-29 cells at 2 mg/ml cotreated with 10 ug/ml irinotecan by MTT assay relative to control; assay type: functional
CCRF-CEM [28] = assay: Induction of apoptosis in human CCRF-CEM cells at antiproliferative IC50 after 72 hrs by Annexin V/propidium iodide staining based assay (reference value: 0.8%); assay type: functional
[29] = Growth inhibition of human GRC1 cells at 1 g/L after 96 hrs by MTT assay relative to control; assay type: functional; conditions: read-out: GI
SMMC-7721 = assay: Antiproliferative activity against human SMMC7721 cells at 5 ug/ml after 72 hrs by MTT assay relative to control; assay type: functional
HepG2 [30] = assay: Antiproliferative activity against human HepG2 cells at 1 mg/ml after 48 hrs by MTT assay relative to control; assay type: functional
UMR108 [31] = assay: Growth inhibition of rat UMR108 cells assessed as cell proliferation at 1.5 mg/ml after 48 hrs by MTT assay (reference value: 0.404 +/- 0.008%); assay type: functional; conditions: UMR108, 48 h, read-out: Activity
HL-60 = assay: Induction of apoptosis in human HL60 cells after 24 hrs by Annexin V-FITC/propidium iodide staining based flow cytometry relative to control; assay type: functional
D341 cell line [32] = assay: Growth inhibition of human D341 cells at 2 mg/ml after 48 hrs by CCK8 assay relative to control; assay type: functional; conditions: D341, 48 h, read-out: GI
C-33-A = assay: Induction of apoptosis in human C33A cells at 100 ug/ml after 48 hrs by Annexin V-FITC/propidium iodide staining based flow cytometry relative to control; assay type: functional
DLD-1 = assay: Growth inhibition of human DLD1 cells after 24 hrs by MTT assay; assay type: functional, cell-based; conditions: DLD-1, 24 h
HT-29 [33] = assay: Growth inhibition of human HT-29 cells at 4 ml/L after 24 hrs by MTT assay relative to control; assay type: functional
M21 [34] = assay: Induction of apoptosis in human M21 cells at 0.8 mg/ml after 48 hrs by Annexin V-FITC/propidium iodide staining based flow cytometry relative to control; assay type: functional
RD = assay: Induction of apoptosis in human RD cells at 1 mg/ml after 24 hrs by Annexin V-FITC/propidium iodide staining based flow cytometry relative to control; assay type: functional
PC-3 [35] = assay: Induction of apoptosis in human PC3 cells assessed as late apoptotic cells at 50 mg/mL (reference value: 2.5%); assay type: functional

With `O=C1CCC[C@@H]2[C@H]3CCCN4CCC[C@@H](CN12)[C@@H]34` [MATRINE] the “growth inhibition (GI)” value (HT-29 [1]) was 58.2%, the IC50 (RPMI-8226 [2]) was 4.35 mM and the Activity [3] was 30%. The viability at 1000 µM [4] was 72.1%, the IC50 (CCRF-CEM [5]) was 9.63 mM and the Activity (PANC-1 [6]) was 24.56%. It also gave an inhibition of growth at 60000 µg/mL (SGC-7901 [7]) of 40%, an Activity (SGC-7901 [8]) of 22.34% and an Activity (PC-3 [9]) of 20.5%. The inhibition of growth at 3200 µg/mL (MG-63 [10]) was 86%, the IC50 (MCF7 [11]) was 721 µg/mL (≈ 2900 µM) and the Activity (MCF7 [12]) was 10.86 - 70.23%. It also gave an Activity (M21 [13]) of 24.1%, an Activity (M21 [14]) of 34.8% and a viability at 3000 µg/mL (KYSE-150 cell line) of 29.6%. For the same compound, the Activity (PANC-1 [15]) was 8.71%, the IC50 (M21 [16]) was 3.1 mM and the inhibition of growth at 800 µg/mL (MG-63 [17]) was 20%. The growth at 1000 µg/mL (UMR108 [18]) was 0.298%, the Activity (BXPC-3 [19]) was 9.9% and the IC50 (PANC-1 [20]) was 0.0286 mM. For the same compound, the IC50 (HT-29 [21]) was 6.32 to 50.3 mM, the inhibition of growth at 2 g/mL (RPMI-8226 [22]) was 74% and the inhibition of growth at 2000 µg/mL (D341 cell line [23]) was 59.3%. It also gave an IC50 (NIH3T3) of over 8.06 mM, an Activity (BXPC-3 [24]) of 48.83% and an Activity (HepG2 [25]) of 44.03%. For the same compound, the IC50 [26] was 5.4 mM, the Activity (HeLa) was 38.41% and the “growth inhibition (GI)” value (HT-29 [27]) was 95.29%. It also gave an Activity (CCRF-CEM [28]) of 5.4%, an inhibition of growth at 1000 µg/mL [29] of 45.8% and an Activity (SMMC-7721) of 3%. The Activity (HepG2 [30]) was 14.81%, the growth at 1500 µg/mL (UMR108 [31]) was 0.205% and the Activity (HL-60) was 41.1%. The inhibition of growth at 2000 µg/mL (D341 cell line [32]) was 47.2%, the Activity (C-33-A) was 28.91% and the IC50 (DLD-1) was 6.32 mM. The “growth inhibition (GI)” value (HT-29 [33]) was 17.88%, the Activity (M21 [34]) was 40.3% and the Activity (RD) was 26.5%. The Activity (PC-3 [35]) was 21%.

Source: ChEMBL document CHEMBL4325859, “Research advances on anticancer activities of matrine and its derivatives: An updated overview” (Eur J Med Chem, 2019)
